Experiments:
[1] = system: Candida albicans A9540; experiment: in vivo antifungal activity against C. albicans A9540 intravenous infection in mice; design: species or system male ICR mice; conditions: for ED50: Candida albicans, A9540, 480 h, intravenous, from survival rates on the 20th day, read-out: PD50 (dose that protects 50% of the animals from infection); for Number of survivors/tested: 20th day
Experimental: In vivo activity of BU-3608 E was tested against Candida albicans A9540 infection in mice. Test organisms were cultured for 18 hours at 28° C. in YGP medium (yeast extract, glucose, peptone, K2 HPO4, MgSO4) and then suspended in saline. Male ICR mice weighing 20 to 24 g were infected intravenously with about 10 times the median lethal dose of the test fungus. The antibiotic at various dose levels was administered to groups of 5 mice each intravenously just after the fungal infection. The dose that protects 50% of the animals from infection (PD50, mg/kg) was calculated from survival rates recorded on the 20th day after the fungal challenge. All control animals died within 7 to 15 days after infection. The PD50 for BU-3608 D against the same organism and using the same test protocol as described above is 9 mg/kg/inj.

[2] = acute toxicity in mice after single intravenous administration; conditions: mouse, in vivo
Experimental: The acute toxicity of BU-3608 D was determined in mice after single intraveneous administration.

SMILES	ED50 [1]	LD50 [2]	Number of survivors/tested ([1]; 1.6 mg/kg/inj. intravenously just after infection)	Number of survivors/tested ([1]; 3.1 mg/kg/inj. intravenously just after infection)	Number of survivors/tested ([1]; 6.3 mg/kg/inj. intravenously just after infection)	Number of survivors/tested ([1]; 12.5 mg/kg/inj. intravenously just after infection)	Number of survivors/tested ([1]; 25 mg/kg/inj. intravenously just after infection)	Number of survivors/tested ([1]; 50 mg/kg/inj. intravenously just after infection)
CN[C@@H]1[C@H](O[C@@H]2OC[C@@H](O)[C@H](O)[C@H]2O)[C@@H](O)[C@H](O[C@H]2c3cc(C)c(C(=O)NCC(=O)O)c(O)c3-c3c(cc4c(c3O)C(=O)c3cc(OC)cc(O)c3C4=O)[C@@H]2O)O[C@@H]1C [BU-3608 D]	9 mg/kg	210 mg/kg						
COc1cc(O)c2c(c1)C(=O)c1c(cc3c(c1O)-c1c(cc(C)c(C(=O)NCC(=O)O)c1O)[C@H](O[C@@H]1O[C@H](C)[C@H](N)[C@H](O[C@@H]4OC[C@@H](O)[C@H](O)[C@H]4O)[C@H]1O)[C@H]3O)C2=O [BU-3608 E]	8.9 mg/kg		0/5	0/5	1/5	4/5	5/5	5/5
